Assay [1] addresses T1, Full length WRN protein (aa 2-1432) (Homo sapiens (Human), UniProt Q14191). As to the kind of experiment: WRN ATPase ADP-Glo biochemical assay, Assay Format A (10 μM ATP). The settings on record: 0.25 nM WRN, 100 nM C6.18 ssDNA, 30 min preincubation, read-out: ATPase ADPGlo AC50 (uM)- Assay Format A. Put shortly: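 Sf9-expressed FLAG-AVI-TEV-tagged WRN (0.5 nM) preincubated 30 min with compound (11-point 3-fold dilution). Reaction started with 200 nM C6.18 39-mer ssDNA and 20 μM ATP (addition concentrations), run 30 min at room temperature. ADP measured by ADP-Glo luminescence; IC50 from four-parameter fit, geometric mean of ≥2 runs.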

For assay [2], the target named is T1, Full length WRN protein (aa 2-1432). Briefly: WRN ATPase ADP-Glo biochemical assay, Assay Format B (100 μM ATP). The following applies: 0.25 nM WRN, 100 nM C6.18 ssDNA, 60 min preincubation, read-out: ATPase ADPGlo AC50 (uM)- Assay Format B. In general terms: ADP-Glo first removes unused ATP, then detects ADP through luciferase.
The test system of assay [3] is HCT116 cells. Briefly: HCT116 (MSI) 7 day viability, CellTiter Glo. The class given is cell-based. The settings on record: 7 days, read-out: HCT116 (MSI) Viability 7 Day Abs AC50. Put shortly:
(§1)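 Luminescence read-out (CellTiter Glo) after 7-day compound exposure at 37 °C. Seeding density 50 cells/well for HCT116, 500 cells/well for HT29. Background from cell-free medium wells; IC50 by four-parameter logistic fit, geometric mean of at least 2 replicates.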
Background: ATP-based viability assays read luminescence as a measure of living cells.

Assay [4] relates to HT29 cells. As to the kind of experiment: HT29 (MSS) 7 day viability, CellTiter Glo. The following applies: 7 days, read-out: HT29 (MSS) Viability 7 Day CTGAbs AC50. It is filed as cell-based. In short, it runs like this: as §1

Each structure is given as a SMILES string. Like-named read-outs stand apart in the source and are kept apart here.

T1 sequence (Q14191 2-1432): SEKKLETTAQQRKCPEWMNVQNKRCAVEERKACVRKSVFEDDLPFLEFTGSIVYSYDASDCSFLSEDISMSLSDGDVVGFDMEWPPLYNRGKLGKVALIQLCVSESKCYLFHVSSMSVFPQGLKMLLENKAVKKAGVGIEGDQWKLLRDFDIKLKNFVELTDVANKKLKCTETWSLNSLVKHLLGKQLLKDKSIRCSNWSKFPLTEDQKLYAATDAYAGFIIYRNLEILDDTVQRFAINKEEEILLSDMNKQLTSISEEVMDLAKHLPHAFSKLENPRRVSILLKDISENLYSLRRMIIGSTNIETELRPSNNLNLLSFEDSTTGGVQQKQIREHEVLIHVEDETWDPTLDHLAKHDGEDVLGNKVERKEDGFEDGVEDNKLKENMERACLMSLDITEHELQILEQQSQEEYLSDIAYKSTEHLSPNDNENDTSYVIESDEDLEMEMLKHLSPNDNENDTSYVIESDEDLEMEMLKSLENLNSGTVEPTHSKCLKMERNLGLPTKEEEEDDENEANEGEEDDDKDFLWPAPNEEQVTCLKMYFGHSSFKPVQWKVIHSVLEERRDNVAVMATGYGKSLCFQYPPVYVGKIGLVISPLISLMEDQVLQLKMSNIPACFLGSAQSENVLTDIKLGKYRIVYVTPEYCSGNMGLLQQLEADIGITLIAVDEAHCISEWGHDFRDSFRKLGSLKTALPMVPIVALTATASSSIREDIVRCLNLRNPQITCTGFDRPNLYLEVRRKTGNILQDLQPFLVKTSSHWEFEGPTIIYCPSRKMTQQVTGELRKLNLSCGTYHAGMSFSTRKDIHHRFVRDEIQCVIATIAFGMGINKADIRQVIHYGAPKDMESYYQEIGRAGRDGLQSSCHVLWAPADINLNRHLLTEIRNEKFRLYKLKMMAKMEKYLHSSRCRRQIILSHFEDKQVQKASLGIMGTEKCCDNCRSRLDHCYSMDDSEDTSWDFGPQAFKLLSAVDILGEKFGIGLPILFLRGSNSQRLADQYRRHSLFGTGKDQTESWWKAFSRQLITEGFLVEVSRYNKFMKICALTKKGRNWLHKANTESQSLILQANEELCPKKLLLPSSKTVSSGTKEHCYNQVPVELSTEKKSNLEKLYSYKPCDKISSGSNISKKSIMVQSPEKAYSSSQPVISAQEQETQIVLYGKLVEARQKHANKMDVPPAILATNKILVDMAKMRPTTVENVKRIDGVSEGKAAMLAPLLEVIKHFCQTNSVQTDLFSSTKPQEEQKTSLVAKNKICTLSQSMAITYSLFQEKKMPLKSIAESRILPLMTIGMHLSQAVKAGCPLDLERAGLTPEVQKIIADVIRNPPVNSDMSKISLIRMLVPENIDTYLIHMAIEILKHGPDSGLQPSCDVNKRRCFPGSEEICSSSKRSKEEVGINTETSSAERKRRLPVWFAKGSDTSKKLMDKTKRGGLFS

For the compound `C=CC(=O)N1CCc2nn(-c3ccc(C45CC(C4)C5)cc3F)c3c2C(C1)N(C(=O)c1ccc(Br)c2[nH]cnc12)CC3` (stereo not shown) [Compound 30, 1-(2-(4-(bicyclo[1.1.1]pentan-1-yl)-2-fluorophenyl)-5-(7-bromo-1H-benzo[d]imidazole-4-carbonyl)-2,3,4,5,5a,6,8,9-octahydro-7H-1,2,5,7-tetraazabenzo[cd]azulen-7-yl)prop-2-en-1-one], the AC50 in assay [1] is below 0.0015 µM; in assay [2] it was 0.005 to 0.015 µM; in assay [3] (Homo sapiens, HCT-116, 168 h), 1 to 100 nM; in assay [4] (Homo sapiens, HT-29, 168 h) it was above 3000 nM.
For `C=CC(=O)N1CC(C)c2nn(-c3ccc(C(C)C)cc3O)c3c2C(C1)N(C(=O)c1ccc(Br)c2[nH]cnc12)CC3` (stereo not shown) [Compound 31, 1-(5-(7-bromo-1H-benzo[d]imidazole-4-carbonyl)-2-(2-hydroxy-4-isopropylphenyl)-9-methyl-2,3,4,5,5a,6,8,9-octahydro-7H-1,2,5,7-tetraazabenzo[cd]azulen-7-yl)prop-2-en-1-one], the AC50 in assay [1] is 0.0015 to 0.005 µM; in assay [2], 0.015 to 0.055 µM; in assay [3], 250 to 500 nM; in assay [4] (Homo sapiens, HT-29, 168 h), above 3000 nM.
Take `C=CC(=O)N1CC(C)c2nn(-c3ccc(C(C)C)cc3O)c3c2C(C1)N(C(=O)c1ccc(Br)c2[nH]cnc12)CC3` (stereo not shown) [Compound 32, 1-(5-(7-bromo-1H-benzo[d]imidazole-4-carbonyl)-2-(2-hydroxy-4-isopropylphenyl)-9-methyl-2,3,4,5,5a,6,8,9-octahydro-7H-1,2,5,7-tetraazabenzo[cd]azulen-7-yl)prop-2-en-1-one]: the AC50 in assay [1] was below 0.0015 µM; in assay [2], 0.005 to 0.015 µM; in assay [3] it was 1 to 100 nM; in assay [4], above 3000 nM.
With `C=CC(=O)N1CC(C)c2nn(-c3ccc(C(C)C)cc3)c3c2C(C1)N(C(=O)c1ccc(Br)c2[nH]cnc12)CC3` (stereo not shown) [Compound 33, 1-(5-(7-bromo-1H-benzo[d]imidazole-4-carbonyl)-2-(4-isopropylphenyl)-9-methyl-2,3,4,5,5a,6,8,9-octahydro-7H-1,2,5,7-tetraazabenzo[cd]azulen-7-yl)prop-2-en-1-one], the AC50 in assay [1] is 0.0015 to 0.005 µM; in assay [2] it was 0.005 to 0.015 µM; in assay [3], 1 to 100 nM; in assay [4] (Homo sapiens, HT-29, 168 h), above 3000 nM.
Take `C=CC(=O)N1CC(C)c2nn(-c3ccc(C(C)C)cc3)c3c2C(C1)N(C(=O)c1ccc(Br)c2[nH]cnc12)CC3` (stereo not shown) [Compound 34, 1-(5-(7-bromo-1H-benzo[d]imidazole-4-carbonyl)-2-(4-isopropylphenyl)-9-methyl-2,3,4,5,5a,6,8,9-octahydro-7H-1,2,5,7-tetraazabenzo[cd]azulen-7-yl)prop-2-en-1-one]: the AC50 in assay [1] was 0.0015 to 0.005 µM; in assay [2], 0.005 to 0.015 µM; in assay [3], 250 to 500 nM; in assay [4] it was above 3000 nM.
For the compound `C=CC(=O)N1CCc2nc(-c3ccc(C(C)C)cc3)n3c2C(C1)N(C(=O)c1ccc(Br)c2[nH]cnc12)CC3` (stereo not shown) [Compound 38, 1-(5-(7-bromo-1H-benzo[d]imidazole-4-carbonyl)-2-(4-isopropylphenyl)-4,5,5a,6,8,9-hexahydro-1,2a,5,7-tetraazabenzo[cd]azulen-7(3H)-yl)prop-2-en-1-one], the half-maximal activity concentration (AC50) is below 0.0015 µM in assay [1]; 0.005 to 0.015 µM in assay [2]; 1 to 100 nM in assay [3] (Homo sapiens, HCT-116, 168 h); above 3000 nM in assay [4] (Homo sapiens, HT-29, 168 h).
The corresponding values for `C=CC(=O)N1CCOc2nn(-c3ccc(C4CCC4)cc3O)c3c2C(C1)N(C(=O)c1ccc(Br)c2[nH]cnc12)CC3` (stereo not shown) [Compound 39, 1-(5-(7-bromo-1H-benzo[d]imidazole-4-carbonyl)-2-(4-cyclobutyl-2-hydroxyphenyl)-2,3,4,5,5a,6,8,9-octahydro-7H-10-oxa-1,2,5,7-tetraazacycloocta[cd]inden-7-yl)prop-2-en-1-one] are 0.0015 to 0.005 µM, 0.015 to 0.055 µM, 1 to 100 nM and above 3000 nM.
For `C=CC(=O)N1CCOc2nn(-c3ccc(C4CCC4)cc3O)c3c2C(C1)N(C(=O)c1ccc2c(Br)n[nH]c2c1)CC3` (stereo not shown) [Compound 40, 1-(5-(3-bromo-1H-indazole-6-carbonyl)-2-(4-cyclobutyl-2-hydroxyphenyl)-2,3,4,5,5a,6,8,9-octahydro-7H-10-oxa-1,2,5,7-tetraazacycloocta[cd]inden-7-yl)prop-2-en-1-one], in that order: below 0.0015 µM, 0.015 to 0.055 µM, 1 to 100 nM and above 3000 nM.
The corresponding values for `C=CC(=O)N1CCOc2nn(-c3ccc(C4CCC4)cc3)c3c2C(C1)N(C(=O)c1ccc(Br)c2[nH]cnc12)CC3` (stereo not shown) [Compound 41, 1-(5-(7-bromo-1H-benzo[d]imidazole-4-carbonyl)-2-(4-cyclobutylphenyl)-2,3,4,5,5a,6,8,9-octahydro-7H-10-oxa-1,2,5,7-tetraazacycloocta[cd]inden-7-yl)prop-2-en-1-one] are 0.0015 to 0.005 µM, 0.015 to 0.055 µM, 1 to 100 nM and above 3000 nM.
For `C=CC(=O)N1CCOc2nn(-c3ccc(C4CCC4)cc3)c3c2C(C1)N(C(=O)c1ccc(Br)c2[nH]ncc12)CC3` (stereo not shown) [Compound 42, 1-(5-(7-bromo-1H-indazole-4-carbonyl)-2-(4-cyclobutylphenyl)-2,3,4,5,5a,6,8,9-octahydro-7H-10-oxa-1,2,5,7-tetraazacycloocta[cd]inden-7-yl)prop-2-en-1-one], the AC50 in assay [1] was below 0.0015 µM; in assay [2] it was 0.005 to 0.015 µM; in assay [3] (Homo sapiens, HCT-116, 168 h), 1 to 100 nM; in assay [4] (Homo sapiens, HT-29, 168 h) it was above 3000 nM.
The corresponding values for `C=CC(=O)N1CCOc2nn(-c3ccc(C45CC(C4)C5)cc3)c3c2C(C1)N(C(=O)c1ccc(Br)c2[nH]cnc12)CC3` (stereo not shown) [Compound 43, 1-(2-(4-(bicyclo[1.1.1]pentan-1-yl)phenyl)-5-(7-bromo-1H-benzo[d]imidazole-4-carbonyl)-2,3,4,5,5a,6,8,9-octahydro-7H-10-oxa-1,2,5,7-tetraazacycloocta[cd]inden-7-yl)prop-2-en-1-one] are below 0.0015 µM, 0.005 to 0.015 µM, 1 to 100 nM and above 3000 nM.
With `C=CC(=O)N1CCOc2nn(-c3ccc(C(C)C)cc3O)c3c2C(C1)N(C(=O)c1ccc(Br)c2[nH]cnc12)CC3` (stereo not shown) [Compound 44, 1-(5-(7-bromo-1H-benzo[d]imidazole-4-carbonyl)-2-(2-hydroxy-4-isopropylphenyl)-2,3,4,5,5a,6,8,9-octahydro-7H-10-oxa-1,2,5,7-tetraazacycloocta[cd]inden-7-yl)prop-2-en-1-one], the AC50 in assay [1] is below 0.0015 µM; in assay [2], 0.005 to 0.015 µM; in assay [3] (Homo sapiens, HCT-116, 168 h) it was 1 to 100 nM; in assay [4] (Homo sapiens, HT-29, 168 h), above 3000 nM.
Turning to `C=CC(=O)N1CCOc2nn(-c3ccc(C(C)C)cc3O)c3c2C(C1)N(C(=O)c1cnc(C(F)(F)F)c(O)c1)CC3` (stereo not shown) [Compound 45, 1-(2-(2-hydroxy-4-isopropylphenyl)-5-(5-hydroxy-6-(trifluoromethyl)nicotinoyl)-2,3,4,5,5a,6,8,9-octahydro-7H-10-oxa-1,2,5,7-tetraazacycloocta[cd]inden-7-yl)prop-2-en-1-one], the AC50 in assay [1] is 0.0015 to 0.005 µM; in assay [2], 0.015 to 0.055 µM; in assay [3] (Homo sapiens, HCT-116, 168 h), above 1000 nM; in assay [4] (Homo sapiens, HT-29, 168 h) it was above 3000 nM.
For `C=CC(=O)N1CCOc2nn(-c3ccc(C(C)C)cc3)c3c2C(C1)N(C(=O)c1ccc(Br)c2[nH]cnc12)CC3` (stereo not shown) [Compound 46, 1-(5-(7-bromo-1H-benzo[d]imidazole-4-carbonyl)-2-(4-isopropylphenyl)-2,3,4,5,5a,6,8,9-octahydro-7H-10-oxa-1,2,5,7-tetraazacycloocta[cd]inden-7-yl)prop-2-en-1-one], in that order: 0.0015 to 0.005 µM, 0.015 to 0.055 µM, 1 to 100 nM and above 3000 nM.
For `C=CC(=O)N1CCOc2nn(-c3ccc(C(C)C)cc3)c3c2C(C1)N(C(=O)c1cnc(C(F)(F)F)c(O)c1)CC3` (stereo not shown) [Compound 47, 1-(5-(5-hydroxy-6-(trifluoromethyl)nicotinoyl)-2-(4-isopropylphenyl)-2,3,4,5,5a,6,8,9-octahydro-7H-10-oxa-1,2,5,7-tetraazacycloocta[cd]inden-7-yl)prop-2-en-1-one], in that order: 0.005 to 0.015 µM, above 0.055 µM, above 1000 nM and above 3000 nM.
For the compound `C=CC(=O)N1CCOc2nn(-c3ccc(C4CC4)cc3)c3c2C(C1)N(C(=O)c1ccc(Br)c2[nH]cnc12)CC3` (stereo not shown) [Compound 49, 1-(5-(7-bromo-1H-benzo[d]imidazole-4-carbonyl)-2-(4-cyclopropylphenyl)-2,3,4,5,5a,6,8,9-octahydro-7H-10-oxa-1,2,5,7-tetraazacycloocta[cd]inden-7-yl)prop-2-en-1-one], the AC50 in assay [1] is below 0.0015 µM; in assay [2], 0.015 to 0.055 µM; in assay [3] (Homo sapiens, HCT-116, 168 h), 1 to 100 nM; in assay [4] (Homo sapiens, HT-29, 168 h) it was above 3000 nM.

For orientation: AC50 means the midpoint of the concentration-response curve, whichever way the signal moves.

The values are drawn from patent US20250346600A1, “TRICYCLIC DERIVATIVES AND RELATED USES” (MOMA Therapeutics, Inc., priority 2023, published 2025).
